Tests used:
[1] = test system: SCC cells; assay: Real-time PCR Apoptosis Array; format: cell-based; conditions: 100 μM Q10
Text: The control cells were untreated cells.
RNA was quantified by measuring Optical Density at 260 nm.

[2] = test system: HepG2 (liver cancer) cells; assay: Real-time PCR Angiogenesis Array; format: cell-based
Experimental: The treatment was initiated on 1×10^5 cells per well, following the procedure utilized in the PaCa2 cells (above Examples 9-11). However, the total amount of RNA that was extracted from these samples was lower than expected. Reverse transcription is normally done using 1 μg of total RNA (determined by measurement at 260 nm).

[3] = test system: Succinate Dehydrogenase B (SDHB); assay: Western blot of Succinate Dehydrogenase subunit B in mitochondrial preparations; format: cell-based; conditions: mitochondrial preparations of cancer cells
Experimental: The above blots were stripped by incubating for 30 minutes with methanol, followed by two 10 minute washes with TBS-T, then 30 minutes of incubation with Stripping buffer at 50 deg C., and followed by two washes with 100 ml or more of TBS-T for 30′ each. The blots were scanned in laser scanner to check for complete stripping. The blots were activated with methanol for 5 seconds, washed with water for 5 minutes, and TBST for 15 minutes. The blots were blocked for 1 hour with 5% blocking reagent in TBS-T at room temperature and then washed 3 times with TBS-T (1×-15′; 2×5′ each) and probed with the primary antibody for PKM2, SDHB or SDHC in 5% BSA in TBS-T by incubation overnight at 4 deg C. with gentle shaking. The primary antibody for SDHC (ABNOVA H00006391-M02; antimouse) was at 1:500 dilution. The primary antibody for SDHB was from Abcam ab4714-200; antimouse; at 1:1000 dilution. The primary antibody for Pyruvate Kinase M2 (PKM2) was from Novus Biologicals H00005315-DOIP; antirabbit; at 1:500 dilution. After incubation with primary antibodies, the membranes were washed 3 times with TBS-T (1×-15′; 2×5′ each) and probed with the secondary antibody (SDHB & C antimouse; and PKM2 antirabbit; 1:10,000 dilution) for 1 hon the orbital tilting shaker at room temperature. […]

[4] = test system: HK-2 cells; assay: Diabetes PCR array in cell model for diabetes; format: cell-based, human
Experimental: The HK-2 and HASMC cells are normally maintained in culture at 5.5 mM glucose, which is a concentration that corresponds to a range considered normal in human blood. However, in order to simulate a diabetic environment, both cell lines were subsequently maintained at 22 mM glucose, which corresponds to the range observed in human blood associated with chronic hyperglycemia. The cells were subsequently allowed to propagate over 3 passages so that the intracellular regulation processes were functionally adapted to mimic a diabetic state. The choice of cell line was based on the physiologic influence of diabetes on renal dysfunction and progression to end-stage renal disease (ESRD) in addition to the progressive pathophysiology of a compromised cardiovascular function.
The Diabetes PCR array (SABiosciences) offers a screen for 84 genes simultaneously.
A stringent analysis of the Real time PCR data of the HK-2 samples on the Diabetes Arrays (Cat #PAHS-023E, SABiosciences Frederick Md.) was made to exclude all results where gene regulation was not at least a two-fold regulation over HK-2 normal untreated cells with a p value of less than 0.05.

[5] = test system: control and cancer cell lines; assay: Sensitivity and apoptotic response of a panel of control and cancer cell lines; format: cell-based; conditions: various levels of Coenzyme Q10
Experimental: In a first set of experiments, changes to cell morphology/physiology were evaluated by examining the sensitivy and apoptotic response of cells to CoQ10. […] Exemplary experiments are described in detail in Example 3 below.

COC1=C(OC)C(=O)C(C/C=C(\C)CC/C=C(\C)CC/C=C(\C)CC/C=C(\C)CC/C=C(\C)CC/C=C(\C)CC/C=C(\C)CC/C=C(\C)CC/C=C(\C)CCC=C(C)C)=C(C)C1=O [Q10, Coenzyme Q10]
Regulation (mRNA) at 6 hours [1]: Down regulated at 6 | Regulation (mRNA) at 24 hours ([1]; gene BAX): Up regulated at 24 hours. | Regulation (mRNA) at 24 hours ([1]; gene BCL2L1): hours and then up | Regulation (mRNA) at 24 hours ([1]; gene BNIP3): Down regulated at 24 | ANGPTL3 upregulation over control ([2]; 100 μM Q10, 16 hours): approximately 5.5 fold | ANGPTL4 upregulation over control ([2]; 100 μM Q10, 16 hours): ~3 fold | CXCL1 upregulation over control ([2]; 100 μM Q10, 16 hours): ~3 fold | CXCL3 upregulation over control ([2]; 100 μM Q10, 16 hours): ~3.2 fold | CXCL5 upregulation over control ([2]; 100 μM Q10, 16 hours): ~3 fold | ENG upregulation over control ([2]; 100 μM Q10, 16 hours): ~3 fold | ID3 downregulation over control ([2]; 100 μM Q10, 16 hours): approximately 5 fold | MMP2 upregulation over control ([2]; 100 μM Q10, 16 hours): approximately 1 fold | TIMP3 upregulation over control ([2]; 100 μM Q10, 16 hours): ~6.5 fold | ANGPTL3 upregulation over control ([2]; 100 μM Q10, 48 hours): approximately 3.5 fold | ANGPTL4 downregulation over control ([2]; 100 μM Q10, 48 hours): approximately 1 fold | CXCL1 upregulation over control ([2]; 100 μM Q10, 48 hours): ~1.5 fold | CXCL3 upregulation over control ([2]; 100 μM Q10, 48 hours): ~3.175 fold | CXCL5 downregulation over control ([2]; 100 μM Q10, 48 hours): approximately 1 fold | ENG upregulation over control ([2]; 100 μM Q10, 48 hours): ~2 fold | ID3 downregulation over control ([2]; 100 μM Q10, 48 hours): ~2 fold | MMP2 downregulation over control ([2]; 100 μM Q10, 48 hours): ~18 fold | TIMP3 upregulation over control ([2]; 100 μM Q10, 48 hours): ~3 fold | SDH protein levels in the mitochondrion [3]: increase SDH protein levels | CEACAM1 RNA transcript ([4]; HK2(H) cells at 22 mM glucose, particularly 100 μM Coenzyme Q10): highly upregulated | insulin receptor (INSR) expression ([4]; diabetic HK-2 cells): increase in expression | apoptotic response of cancer vs control cell lines [5]: induction of apoptosis and cell death in the cancer cells only
